From patent US7989630B2, “Radiotracers for imaging P-glycoprotein function” (National Institutes of Health Represented by the Secretary …, priority 2008, dated 2011)
Structures can show the parent of a compound that is named as a salt.

Tests used:
P-gp [1] = assay: PET imaging of [^11C]dLop in monkey brain, baseline and P-gp blocked with DCPQ; conditions: for increase of regional radioactivity concentration relative to baseline: DCPQ 16 mg/kg i.v. before [^11C]dLop, averaged 25-50 min
Procedure: Scatter and attenuation correction were applied. Images were analyzed with PMOD. Regions of interest were drawn on coronal slices for eight brain regions (frontal cortex, anterior cingulate, temporal cortex, parietal cortex, hippocampus, occipital cortex, putamen and cerebellum). Activity was decay-corrected to the time of injection and expressed as % SUV. […]
Time-radioactivity data were collected for the same eight brain regions as previously described.

P-gp [2] = assay: PET imaging of [^11C]loperamide in monkey brain with P-gp inhibitors; conditions: for increase of brain activity after [^11C]loperamide: monkey; for increase of peak radioactivity in brain after [^11C]loperamide: inhibitor 8.0 mg/kg i.v. 30 min before radiotracer, monkey (FIG. 3)
Procedure: (§1) For tariquidar only a blockade scan was acquired and compared to the baseline scans of three other animals.
PET images were co-registered to a magnetic resonance image template of a monkey brain. Tomographic images were analyzed with PMOD 2.7 (pixel-wise modeling computer software; PMOD Group, Adliswil, Switzerland). Regions of interest were drawn on coronal slices. Decay-corrected radioactivity was expressed as % standardized uptake value (% SUV), which normalizes for injected activity and body weight. % SUV=(% injected activity per cm3 brain)×(g body weight).

[3] = Plasma analysis of [^11C]loperamide in nonhuman primates (arterial plasma, radio-HPLC); conditions: for time at which parent radiotracer was 50% of total plasma activity: monkey arterial plasma
From the text: as §1

[4] = Plasma free fraction (fP) by ultracentrifugation; type: in vitro ADME; conditions: fP of [^11C]loperamide, monkey
P-gp [5] = conditions: DCPQ 16 mg/kg i.v., monkeys
Procedure: The brains of three P-gp KO and three WT mice were scanned for 90 min after administration of [^11C]dLop (˜580 μCi, i.v.). Mice injected with [^11C]dLop (600 μCi, i.v.) were also sacrificed at 30 min, and acetonitrile extracts of blood and brain analyzed with reverse phase HPLC.

P-gp [6] = conditions: Ekins et al. 2002 (DCPQ); Martin et al. 1999 (tariquidar); cited from earlier work
P-gp [7] = assay: P-gp function imaged with [^11C]dLop in monkeys, brain study; type: in vivo; conditions: naloxone 5 mg/kg or loperamide 1 mg/kg at 30 min after [^11C]dLop, P-gp blocked monkeys
Procedure: Displacement agents were given at 30 min after the radiotracer. A subset of monkeys also had arterial blood sampling (n=5) and [^15O]H2O PET scans (n=4) to measure the concentration of parent radiotracer in plasma and cerebral blood flow, respectively.

P-gp [8] = conditions: KO mice, 30 min after [^11C]loperamide i.v.
From the text: (§2) The most lipophilic radiometabolite was identified by radio-HPLC co-elution as N-desmethylloperamide (dLop) (data not shown).

P-gp [9] = conditions: iv, 8 mg/kg
P-gp [10] = assay: Monkey brain PET with [^11C]loperamide, baseline and tariquidar (additional experiments)
[11] = Arterial plasma parent input function and plasma free fraction, [^11C]loperamide with tariquidar; type: in vivo; conditions: monkey
Procedure: Arterial plasma parent input function and plasma free fraction (fl) were determined in monkey.

P-gp [12] = conditions: P-gp knockout mice, 30 min after injection of [^11C]loperamide
Procedure: At 30 min after radiotracer injection, anticoagulated blood was removed by cardiac puncture, and the brain was harvested. Plasma was separated from whole blood by centrifugation at 1,800 g for 1 min. […] The homogenates were measured in the y-counter to calculate the % recovery of radioactivity into the acetonitrile extracts. The homogenates were then centrifuged at 10,000×g for 1 min. […] The eluate was monitored with an in-line flow-through Na(Tl) scintillation detector (Bioscan, Washington D.C., USA). Plasma parent and radiometabolite concentrations were calculated as the product of the radio-HPLC fraction of interest and the total plasma radioactivity concentration (dpm/mL).

P-gp [13] = system: P-gp
Procedure: Serial dynamic images were acquired for 100 min, with frames of 6×20 s, 5×1 min, 4×2 min, 3×5 min, 3×10 min, and 2×20 min. […] The small mouse brain causes little scatter and attenuation of the gamma emissions from carbon-11, and, thus, no correction for scatter or attenuation was performed.

δ opiate receptor = δ opiate receptor (Homo sapiens, UniProt P41143); assay: In vitro receptor binding, cloned human δ opiate receptor
From the text: (§3) Detailed binding protocols are available on the web site for The National Institute of Mental Health Psychoactive Drug Screening Program.

P-gp [14] = target: P-gp (Mus musculus, UniProt P21447); conditions: 30 min after [^11C]loperamide i.v.
From the text: as §2

μ opiate receptor = μ opiate receptor (Homo sapiens, UniProt P35372); type: binding
From the text: as §3

κ opiate receptor = κ opiate receptor (Homo sapiens, UniProt P41145); assay: biochemical; conditions: agonist radiotracer ^3H-U69,593; mean ± SD of four competitive binding experiments
From the text: as §3

CYP3A4 = conditions: mouse, in vivo
Procedure: Ex vivo studies were performed in wild-type (WT) and P-gp knockout (KO) mice. […] Whole brain and plasma sample radioactivity were measured with γ-counting and HPLC analysis.

[15] = inhibitor 8 mg/kg i.v. 30 min before radiotracer

P-gp (Mus musculus, UniProt P21447), sequence (P21447 whole entry): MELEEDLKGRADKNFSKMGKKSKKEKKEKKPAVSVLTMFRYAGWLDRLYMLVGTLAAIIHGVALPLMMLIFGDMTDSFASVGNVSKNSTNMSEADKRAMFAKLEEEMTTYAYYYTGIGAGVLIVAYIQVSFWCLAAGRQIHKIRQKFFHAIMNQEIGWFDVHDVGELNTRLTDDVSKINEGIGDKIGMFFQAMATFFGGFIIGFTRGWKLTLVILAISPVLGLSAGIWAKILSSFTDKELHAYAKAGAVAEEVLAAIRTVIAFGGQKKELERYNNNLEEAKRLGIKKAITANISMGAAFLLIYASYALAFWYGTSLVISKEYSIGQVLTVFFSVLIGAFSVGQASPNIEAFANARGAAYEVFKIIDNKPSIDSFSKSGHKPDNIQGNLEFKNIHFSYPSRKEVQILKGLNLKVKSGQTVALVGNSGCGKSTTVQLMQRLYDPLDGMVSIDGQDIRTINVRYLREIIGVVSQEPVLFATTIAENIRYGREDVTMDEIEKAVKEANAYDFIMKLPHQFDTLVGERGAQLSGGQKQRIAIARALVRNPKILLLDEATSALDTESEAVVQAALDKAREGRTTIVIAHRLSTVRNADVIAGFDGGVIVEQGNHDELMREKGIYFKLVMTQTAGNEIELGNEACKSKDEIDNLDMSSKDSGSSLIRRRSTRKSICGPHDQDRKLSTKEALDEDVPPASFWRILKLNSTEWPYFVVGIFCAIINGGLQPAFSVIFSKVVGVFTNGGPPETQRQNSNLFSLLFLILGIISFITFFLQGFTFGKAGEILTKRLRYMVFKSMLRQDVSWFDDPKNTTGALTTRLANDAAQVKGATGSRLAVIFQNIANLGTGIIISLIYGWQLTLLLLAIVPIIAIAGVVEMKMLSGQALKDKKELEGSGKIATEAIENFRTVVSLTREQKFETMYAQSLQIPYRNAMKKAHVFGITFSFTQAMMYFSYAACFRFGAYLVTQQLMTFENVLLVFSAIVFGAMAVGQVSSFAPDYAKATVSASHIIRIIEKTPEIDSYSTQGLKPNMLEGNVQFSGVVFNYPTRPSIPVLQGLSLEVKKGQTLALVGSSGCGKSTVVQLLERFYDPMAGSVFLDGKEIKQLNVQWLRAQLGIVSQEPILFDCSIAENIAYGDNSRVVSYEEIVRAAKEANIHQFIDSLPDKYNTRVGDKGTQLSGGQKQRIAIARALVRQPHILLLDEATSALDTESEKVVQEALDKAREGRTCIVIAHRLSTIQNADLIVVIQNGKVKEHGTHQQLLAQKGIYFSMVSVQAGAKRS
κ opiate receptor, sequence (P41145 whole entry): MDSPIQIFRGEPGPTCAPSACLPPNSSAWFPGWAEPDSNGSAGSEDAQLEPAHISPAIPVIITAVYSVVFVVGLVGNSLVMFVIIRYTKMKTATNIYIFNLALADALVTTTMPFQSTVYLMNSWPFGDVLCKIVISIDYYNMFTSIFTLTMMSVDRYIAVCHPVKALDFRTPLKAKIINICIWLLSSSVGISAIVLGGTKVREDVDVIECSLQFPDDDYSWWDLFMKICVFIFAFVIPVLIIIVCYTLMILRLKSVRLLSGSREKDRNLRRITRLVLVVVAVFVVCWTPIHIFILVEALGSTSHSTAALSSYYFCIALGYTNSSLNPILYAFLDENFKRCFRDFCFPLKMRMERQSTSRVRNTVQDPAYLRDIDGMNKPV
μ opiate receptor, sequence (P35372 whole entry): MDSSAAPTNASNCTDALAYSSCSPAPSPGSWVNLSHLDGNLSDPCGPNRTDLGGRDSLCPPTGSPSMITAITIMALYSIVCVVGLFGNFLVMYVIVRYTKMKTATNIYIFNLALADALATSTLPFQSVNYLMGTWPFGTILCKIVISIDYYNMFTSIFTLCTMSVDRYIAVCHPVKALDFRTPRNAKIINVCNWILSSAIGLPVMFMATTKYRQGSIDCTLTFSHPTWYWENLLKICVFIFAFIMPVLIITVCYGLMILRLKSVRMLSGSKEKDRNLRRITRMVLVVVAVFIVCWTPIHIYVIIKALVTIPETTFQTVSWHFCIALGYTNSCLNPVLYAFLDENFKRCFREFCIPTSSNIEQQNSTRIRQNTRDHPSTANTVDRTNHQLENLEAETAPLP
δ opiate receptor, sequence (P41143 whole entry): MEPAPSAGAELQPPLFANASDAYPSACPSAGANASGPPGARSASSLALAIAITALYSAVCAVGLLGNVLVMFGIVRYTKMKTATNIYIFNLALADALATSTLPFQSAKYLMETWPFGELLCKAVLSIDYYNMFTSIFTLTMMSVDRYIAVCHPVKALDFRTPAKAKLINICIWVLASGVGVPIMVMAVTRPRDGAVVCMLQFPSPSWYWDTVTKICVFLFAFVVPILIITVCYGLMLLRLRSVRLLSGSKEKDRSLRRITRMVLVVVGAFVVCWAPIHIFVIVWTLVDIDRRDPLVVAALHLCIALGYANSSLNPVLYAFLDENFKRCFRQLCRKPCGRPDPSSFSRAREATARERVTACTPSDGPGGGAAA

Compound: Cl.Cl.Cl.O[C@@H](COc1cccc2ncccc12)CN1CCN(C2c3ccccc3C3C(c4ccccc42)C3(Cl)Cl)CC1 (stereo partly drawn) [DCPQ, (2R)-anti-5-{3-[4-(10,11-dichloromethanodibenzosuber-5-yl)piperazin-1-yl]-2-hydroxypropoxy}quinoline trihydrochloride]
- dependence of regional brain radioactivity uptake on dose (P-gp [1]; DCPQ 0-16 mg/kg i.v. before [^11C]dLop, one monkey): increased almost linearly with dose of DCPQ
- ratio of maximal brain radioactivity to that in the baseline experiment (P-gp [1]; DCPQ 8 mg/kg i.v. before [^11C]dLop, monkey): about five
- effect on uptake of radioactivity into pituitary (P-gp [1]; DCPQ 8 mg/kg or 16 mg/kg i.v. before [^11C]dLop, monkey): unaffected
- increase of regional radioactivity concentration relative to baseline (P-gp [1]; cerebellum, monkey): thirteen-fold
- increase of regional radioactivity concentration relative to baseline (P-gp [1]; frontal cortex, monkey): seven-fold
- increase of brain activity after [^11C]loperamide (P-gp [2]; inhibitor 1 mg/kg i.v. 30 min before radiotracer): minimal effect
- increase of brain activity after [^11C]loperamide (P-gp [2]; inhibitor 3 mg/kg i.v. 30 min before radiotracer): ~2.5 fold
- increase of brain activity after [^11C]loperamide (P-gp [2]; [15]): ~3.5 fold
- increase of peak radioactivity in brain after [^11C]loperamide (P-gp [2]): 3.7 fold
- increase in plasma exposure of [^11C]loperamide ([3]; DCPQ 8 mg/kg i.v. vs baseline, monkey): 16%
- Plasma free fraction (fP), P-gp Inhibition ([4]; inhibitor 1.0 mg/kg): 5.7 ± 0.3
- Plasma free fraction (fP), P-gp Inhibition ([4]; inhibitor 3.0 mg/kg): 1.4 ± 0.5
- Plasma free fraction (fP), P-gp Inhibition ([4]; inhibitor 8.0 mg/kg): 4.4 ± 1.4
- increase of brain radioactivity after [^11C]dLop (P-gp [5]): more than 7 fold
- affinity to the P-gp (P-gp [6]): 5.3 nM

Compound: CN(C)C(=O)C(CCN1CCC(O)(c2ccc(Cl)cc2)CC1)(c1ccccc1)c1ccccc1 [Loperamide, 4-(p-chlorophenyl)-4-hydroxy-N,N-dimethyl-α,α-diphenyl-1-piperidinebutyramide hydrochloride, reference compound]
- displacement of the radiotracer from brain (P-gp [7]): Neither naloxone nor loperamide caused any apparent displacement
- Brain composition (P-gp [8]): 63%

Compound: COc1cc2c(cc1OC)CN(CCc1ccc(NC(=O)c3cc(OC)c(OC)cc3NC(=O)c3cnc4ccccc4c3)cc1)CC2 [Tariquidar]
- brain activity after P-gp inhibition (P-gp [9]): 146 % standard uptake value
- increase of brain activity after [^11C]loperamide (P-gp [10]; tariquidar 8 mg/kg i.v.): about 3.7 fold
- increase of brain activity after [^11C]loperamide (P-gp [2]; [15]): equipotent with DCPQ
- increase of peak radioactivity in brain after [^11C]loperamide (P-gp [2]): 3.7 fold
- increase of brain activity after [^11C]loperamide (P-gp [2]; inhibitor 8 mg/kg i.v. 30 min before radiotracer, listed as tariquidar): ~3.5 fold
- Plasma free fraction (fP), Δ relative to baseline ([4]; inhibitor 8.0 mg/kg): negligibly affected
- affinity to the P-gp (P-gp [6]): 5.1 nM
- time over which parent plasma composition decreased to 50% ([11]; rhesus, in vivo): 20 min

Compound: CN([11CH3])C(=O)C(CCN1CCC(O)(c2ccc(Cl)cc2)CC1)(c1ccccc1)c1ccccc1 [[^11C]loperamide, 4-(4-(4-chlorophenyl)-4-hydroxypiperidin-1-yl)-N,N-dimethyl-2,2-diphenylbutanamide]
- brain activity, baseline (P-gp [10]; baseline): 40 % standard uptake value
- share of brain radioactivity after [^11C]loperamide (P-gp [12]): ~50%
- brain uptake under baseline conditions (P-gp [2]; three monkeys, 120 min scan): ~40 % SUV
- time at which parent radiotracer was 50% of total plasma activity ([3]; after DCPQ 8 mg/kg i.v.): 20 min
- time at which parent radiotracer was 50% of total plasma activity ([3]; baseline): 17 min
- time at which parent radiotracer was 50% of total plasma activity ([3]; baseline, listed as [^11C]Loperamide): about 20 min
- maximal activity in cerebellum, knockout vs wild type mice (PET) (P-gp [13]; cerebellum): 1.9 fold
- maximal activity in forebrain, knockout vs wild type mice (PET) (P-gp [13]; forebrain): 2.7 fold
- brain activity, knockout vs wild type mice (PET) (P-gp [13]; whole brains): about three-fold
- time over which parent plasma composition decreased to 50% ([11]; baseline): 17 min

Compound: CNC(=O)C(CCN1CCC(O)(c2ccc(Cl)cc2)CC1)(c1ccccc1)c1ccccc1 [dLop, 4-(4-(4-Chlorophenyl)-4-hydroxypiperidin-1-yl)-2,2-diphenyl-N-methyl-butanamide]
- Ki (δ opiate receptor): 328 ± 22 nM
- effect on washout of radioactivity from brain regions (P-gp [1]; given 30 min after [^11C]dLop to DCPQ-treated monkey (naloxone 5 mg/kg i.v.; loperamide or dLop 1 mg/kg i.v.)): no discernible effect
- Brain composition (P-gp [8]): 21%
- Brain composition (P-gp [14]; WT mice): 4.3%
- concentration increase over control (KO vs WT) (P-gp [14]; brain): 59 fold
- Ki (μ opiate receptor): 0.56 ± 0.05 nM
- Ki (κ opiate receptor): 73 ± 7 nM

Compound: CC(=O)N1CCN(c2ccc(OCC3COC(Cn4ccnc4)(c4ccc(Cl)cc4Cl)O3)cc2)CC1 (stereo not shown) [ketoconazole]
- decrease of radiometabolite dLop in plasma (CYP3A4): ~70%
- increase of [^11C]dLop concentration in plasma (CYP3A4): ~240%
- increase of [^11C]loperamide concentration in plasma (CYP3A4): ~100%

Compound: C=CCN1CC[C@]23c4c5ccc(O)c4O[C@H]2C(=O)CC[C@@]3(O)[C@H]1C5 [naloxone, reference compound]
- displacement of the radiotracer from brain (P-gp [7]): Neither naloxone nor loperamide caused any apparent displacement
